# Experimental data reported in US20230234941A1, “Salts of Compound and Pharmaceutical Compositions Containing the Same” (Shenzhen Forward Pharmaceuticals Co., Limited., priority 2020, published 2023).
# Counter-ions that a name gives are not always drawn. Like-named read-outs stand apart in the source and are kept apart here.
# Columns and labels:
# Type in all cases: physicochemical
# [1] = Solid storage stability test; conditions: for Original morphology / Original purity: original solid before storage; for chemical and physical stability after storage (summary): solid/25° C./60% RH/open/1 week and/or solid/60° C./closed container/1 week
# Description: Each amorphous salt solid was weighed (two 2 mg samples were weighed for purity testing after solid storage stability study, and one 10 mg sample was weighed for XRPD testing after solid storage stability study) and placed in a glass vial. In a 25° C./60% RH solid storage stability test, the amorphous salt solid was placed in a 25° C./60% RH constant temperature and humidity chamber, and placed in the dark for 1 week (i.e. “solid/25° C./60% RH/open/1 week”), and in a 60° C. solid storage stability test, the amorphous salt solid was sealed in an oven at 60° C. and heated for 1 week in the dark (i.e. “solid/60° C./closed container/l week”). Then the sample was taken out for purity testing, crystal form detection and appearance observation, respectively.
# [2] = Solid solubility test (2 h and 24 h); conditions: for solubility at 2 h / solubility at 24 h: thermodynamic from solid; for XRPD measured at 2 h: state of sample / solid fraction; for solubility at 24 h: read-out: Solubility measured at 24 h; for XRPD measured at 24 h: 24 h test, state of sample
# Description: samples were weighed for each amorphous salt solid (equivalent to 20 mg of free base), and 10 mL of the following solvents were respectively added: 0.1N HCl solution (pH 1.0), 50 mM phosphate buffer (pH 4.5), FeSSIF-V1 (pH 5.0), FaSSIF-V1 (pH 6.5) and SGF (pH 2.0), […] The suspension was then centrifuged at 37° C., the supernatant was measured for solubility by HPLC, and the solid fraction was measured for XRPD. The target solubility was at least 2 mg (based on free base)/mL.
# [3] = Chemical and physical stability of the salts at the end of the preparation
# Excerpt: It is crucial for drug development whether the salts obtained as above have chemical and physical stability at the end of the preparation. The chemical and physical stability of the salts at the end of the preparation includes: […]
# [4] = Test BS1: solid/25° C./60% RH/open/1 week
# [5] = solid/60° C./closed container/1 week (Test BS1)
# [6] = FaSSIF-V1 (pH 6.5) (Test ES4, partly printed ES1)
# [7] = FaSSIF-V1 (pH 6.5) (Test ES4, partly printed ES1), 37° C., based on free base
# [8] = Test ES1: 0.1N HCl solution (pH 1.0)
# [9] = Test ES1: 0.1N HCl solution (pH 1.0), 37° C., based on free base
# [10] = Test ES2: 50 mM phosphate buffer (pH 4.5)
# [11] = Test ES5: SGF (pH 2.0), 37° C., based on free base
# [12] = listed as 1 eq. hydrochloride salt
# [13] = listed as amorphous 1 eq. hydrochloride salt
# [14] = Test ES2: 50 mM phosphate buffer (pH 4.5), 37° C., based on free base
# [15] = Test ES3: FeSSIF-V1 (pH 5.0), 37° C., based on free base
# [16] = listed as 2 eq. hydrochloride salt
# [17] = listed as amorphous 2 eq. hydrochloride salt
smiles,measurement,setting,value
C=CC(=O)Nc1cc(Nc2ncnc(-c3cn(C)c4ccccc34)n2)c(OC)cc1N(C)CCN(C)C [Example 1],Purity,[1]; [4],99.6%
same,Original morphology,[1],amorphous
same,Original purity,[1],99.9%
same,physical and chemical stability under storage (in words),"[1]; solid/25° C./60% RH/open/1 week, listed as amorphous free base",good physical and chemical stability
same,Purity,[1]; [5],99.9%
same,physical and chemical stability under storage (in words),"[1]; solid/60° C./closed container/1 week, listed as amorphous free base",transformed from amorphous to a moderate crystallinity
same,solubility at 2 h,"[2]; 50 mM phosphate buffer, 37 °C, pH 4.5, aqueous buffer, Test ES2: 50 mM phosphate buffer (pH 4.5), 37° C., based on free base, read-out: Solubility measured at 2 h",> 2 mg/mL
same,pH measured at 2 h,[2]; [6],(6.8)
same,Solubility measured at 2 h,[2]; [7],>2 mg/mL
same,XRPD measured at 2 h,[2]; [6],clear solution
same,solubility at 24 h,"[2]; FaSSIF-V1, 37 °C, pH 6.5, fassif, Test ES4: FaSSIF-V1 (pH 6.5)",> 2 mg/mL
same,solubility at 2 h,"[2]; FeSSIF-V1, 37 °C, pH 5, fessif, Test ES3: FeSSIF-V1 (pH 5.0), 37° C., based on free base, read-out: Solubility measured at 2 h",> 2 mg/mL
same,solubility at 24 h,"[2]; FeSSIF-V1, 37 °C, pH 5, fessif, Test ES3: FeSSIF-V1 (pH 5.0)",> 2 mg/mL
same,pH measured at 2 h,[2]; [8],(0.8)
same,Solubility measured at 2 h,[2]; [9],>2 mg/mL
same,XRPD measured at 2 h,[2]; [8],clear solution
same,pH measured at 2 h,[2]; [10],(4.6)
same,XRPD measured at 2 h,[2]; [10],clear solution
same,pH measured at 2 h,[2]; Test ES3: FeSSIF-V1 (pH 5.0),(4.9)
same,Solubility measured at 24 h,[2]; Test ES3: FeSSIF-V1 (pH 5.0),>2 mg/mL
same,pH measured at 24 h,[2]; Test ES3: FeSSIF-V1 (pH 5.0),(5.0)
same,XRPD measured at 24 h,[2]; Test ES3: FeSSIF-V1 (pH 5.0),clear solution
same,XRPD measured at 2 h,[2]; Test ES3: FeSSIF-V1 (pH 5.0),clear solution
same,Solubility measured at 24 h,[2]; Test ES4: FaSSIF-V1 (pH 6.5),>2 mg/mL
same,pH measured at 24 h,[2]; Test ES4: FaSSIF-V1 (pH 6.5),(6.8)
same,XRPD measured at 24 h,[2]; Test ES4: FaSSIF-V1 (pH 6.5),clear solution
same,pH measured at 2 h,[2]; Test ES5: SGF (pH 2.0),(2.4)
same,Solubility measured at 2 h,[2]; [11],>2 mg/mL
same,XRPD measured at 2 h,[2]; Test ES5: SGF (pH 2.0),clear solution
same,chemical and physical stability at the end of the preparation,[3]; listed as amorphous free base,chemically and physically stable
C=CC(=O)Nc1cc(Nc2ncnc(-c3cn(C)c4ccccc34)n2)c(OC)cc1N(C)CCN(C)C [Example 2],Purity,[1]; [4],99.9%
same,Original morphology,[1],amorphous
same,Original purity,[1],99.9%
same,chemical and physical stability after storage (summary),[1]; [12],chemically unstable
same,chemical and physical stability after storage (summary),[1]; [13],chemically unstable
same,physical and chemical stability under storage (in words),"[1]; solid/25° C./60% RH/open/1 week, listed as amorphous 1 eq. hydrochloride salt",good physical and chemical stability
same,decrease in purity,[1]; solid/60° C./closed container/1 week,about 2%
same,Purity,[1]; [5],98.2%
same,solubility at 2 h,"[2]; 37 °C, 2 h solid solubility test, all five solvents, read-out: solubility in all solvents tested",> 2 mg/mL
same,pH measured at 2 h,[2]; [6],(6.5)
same,Solubility measured at 2 h,[2]; [7],>2 mg/mL
same,XRPD measured at 2 h,[2]; [6],clear solution
same,pH measured at 2 h,[2]; [8],(0.7)
same,Solubility measured at 2 h,[2]; [9],>2 mg/mL
same,XRPD measured at 2 h,[2]; [8],clear solution
same,pH measured at 2 h,[2]; [10],(4.5)
same,Solubility measured at 2 h,[2]; [14],>2 mg/mL
same,XRPD measured at 2 h,[2]; [10],clear solution
same,pH measured at 2 h,[2]; Test ES3: FeSSIF-V1 (pH 5.0),(4.8)
same,Solubility measured at 2 h,[2]; [15],>2 mg/mL
same,XRPD measured at 2 h,[2]; Test ES3: FeSSIF-V1 (pH 5.0),clear solution
same,pH measured at 2 h,[2]; Test ES5: SGF (pH 2.0),(2.0)
same,Solubility measured at 2 h,[2]; [11],>2 mg/mL
same,XRPD measured at 2 h,[2]; Test ES5: SGF (pH 2.0),clear solution
same,chemical and physical stability at the end of the preparation,[3]; [12],chemically and physically stable
same,chemical and physical stability at the end of the preparation,[3]; [13],chemically and physically stable
C=CC(=O)Nc1cc(Nc2ncnc(-c3cn(C)c4ccccc34)n2)c(OC)cc1N(C)CCN(C)C [Example 3],Purity,[1]; [4],99.6%
same,Original morphology,[1],amorphous
same,Original purity,[1],99.9%
same,chemical and physical stability after storage (summary),[1]; [16],physically unstable
same,chemical and physical stability after storage (summary),[1]; [17],physically unstable
same,physical and chemical stability under storage (in words),"[1]; solid/25° C./60% RH/open/1 week, listed as amorphous 2 eq. hydrochloride salt",slight color change and showed a certain hygroscopicity (partial agglomeration)
same,Purity,[1]; [5],99.6%
same,physical and chemical stability under storage (in words),"[1]; solid/60° C./closed container/1 week, listed as amorphous 2 eq. hydrochloride salt",good physical and chemical stability
same,pH measured at 2 h,[2]; [6],(6.1)
same,Solubility measured at 2 h,[2]; [7],>2 mg/mL
same,XRPD measured at 2 h,[2]; [6],clear solution
same,pH measured at 2 h,[2]; [8],(0.71
same,Solubility measured at 2 h,[2]; [9],>2 mg/mL
same,XRPD measured at 2 h,[2]; [8],clear solution
same,pH measured at 2 h,[2]; [10],(4.2)
same,Solubility measured at 2 h,[2]; [14],>2 mg/mL
same,XRPD measured at 2 h,[2]; [10],clear solution
same,pH measured at 2 h,[2]; Test ES3: FeSSIF-V1 (pH 5.0),(4.8)
same,Solubility measured at 2 h,[2]; [15],>2 mg/mL
same,XRPD measured at 2 h,[2]; Test ES3: FeSSIF-V1 (pH 5.0),clear solution
same,pH measured at 2 h,[2]; Test ES5: SGF (pH 2.0),(1.8)
same,Solubility measured at 2 h,[2]; [11],>2 mg/mL
same,XRPD measured at 2 h,[2]; Test ES5: SGF (pH 2.0),clear solution
same,chemical and physical stability at the end of the preparation,[3]; [16],chemically and physically stable
same,chemical and physical stability at the end of the preparation,[3]; [17],chemically and physically stable
C=CC(=O)Nc1cc(Nc2ncnc(-c3cn(C)c4ccccc34)n2)c(OC)cc1N(C)CCN(C)C [Example 11],chemical and physical stability at the end of the preparation,[3]; listed as amorphous nitrate salt,at least chemically unstable
same,chemical and physical stability at the end of the preparation,[3]; listed as nitrate salt,chemically unstable
C=CC(=O)Nc1cc(Nc2ncnc(-c3cn(C)c4ccccc34)n2)c(OC)cc1N(C)CCN(C)C [Example 12],chemical and physical stability at the end of the preparation,[3]; listed as amorphous sulfate salt,"chemically stable at the end of the preparation, but was physically unstable due to a certain hygroscopicity"
same,chemical and physical stability at the end of the preparation,[3]; listed as sulfate salt,physically unstable
C=CC(=O)Nc1cc(Nc2ncnc(-c3cn(C)c4ccccc34)n2)c(OC)cc1N(C)CCN(C)C [Example 13],chemical and physical stability at the end of the preparation,[3]; listed as 2 eq. p-tosylate salt,physically unstable
same,chemical and physical stability at the end of the preparation,[3]; listed as amorphous 2 eq. p-tosylate salt,"chemically stable and reasonable in terms of the base:acid stoichiometric ratio at the end of the preparation, but was physically unstable due to caking and fusion to a glassy state upon short exposure to environmental conditions"
C=CC(=O)Nc1cc(Nc2ncnc(-c3cn(C)c4ccccc34)n2)c(OC)cc1N(C)CCN(C)C [Example 14],chemical and physical stability at the end of the preparation,"[3]; listed as Y11526-25-FD13-1,4-dioxane",chemically and physically stable
C=CC(=O)Nc1cc(Nc2ncnc(-c3cn(C)c4ccccc34)n2)c(OC)cc1N(C)CCN(C)C [Example 15],chemical and physical stability at the end of the preparation,"[3]; listed as Y11526-25-FD12-1,4-dioxane",chemically and physically stable
C=CC(=O)Nc1cc(Nc2ncnc(-c3cn(C)c4ccccc34)n2)c(OC)cc1N(C)CCN(C)C [Example 16],chemical and physical stability at the end of the preparation,[3]; listed as L-malate salt,chemically unstable
same,chemical and physical stability at the end of the preparation,[3]; listed as amorphous L-malate salt,at least chemically unstable
C=CC(=O)Nc1cc(Nc2ncnc(-c3cn(C)c4ccccc34)n2)c(OC)cc1N(C)CCN(C)C [Example 17],chemical and physical stability at the end of the preparation,[3]; listed as 1 eq. citrate salt,chemically unstable
same,chemical and physical stability at the end of the preparation,[3]; listed as amorphous 1 eq. citrate salt,at least chemically unstable
C=CC(=O)Nc1cc(Nc2ncnc(-c3cn(C)c4ccccc34)n2)c(OC)cc1N(C)CCN(C)C [Example 18],chemical and physical stability at the end of the preparation,[3]; listed as 1 eq. L-tartrate,chemically unstable
same,chemical and physical stability at the end of the preparation,[3]; listed as amorphous 1 eq. L-tartrate,chemically unstable
same,chemical and physical stability at the end of the preparation,[3]; listed as amorphous 1 eq. L-tartrate salt,at least chemically unstable
C=CC(=O)Nc1cc(Nc2ncnc(-c3cn(C)c4ccccc34)n2)c(OC)cc1N(C)CCN(C)C [sulfosalicylate salt],chemical and physical stability at the end of the preparation,[3],chemically and physically stable
same,chemical and physical stability at the end of the preparation,[3]; listed as amorphous sulfosalicylate salt,chemically and physically stable
